Measurements as given in the OligoGym collection.
Several values for one entry are separate records, joined by “and”; a condition that tells them apart may be missing. Identical values can stand only once. After the bases stand the sugars from the 5' end (letter, count) and the backbone: PS all phosphorothioate, else s phosphorothioate and o phosphodiester by linkage. Methylation of C is not given here. k = constrained ethyl (cEt); d = 2'-deoxy (DNA)

The sequences below were run against MALAT1. Conditions: ASO, A431, 0.005 µM.
AAAAAAGGCTTAGCGC (sugars k3 d10 k3, PS) showed a target mRNA inhibition of 0%. AAAAACTTATCTGCGG (sugars k3 d10 k3, PS) showed a target mRNA inhibition of 49%. With AAAACGAATTCAGGGT (sugars k3 d10 k3, PS) the target mRNA inhibition was 25%. Sequence AAAACTCCCCCCCGCC (sugars k3 d10 k3, PS) has a target mRNA inhibition of -4%. For AAAAGCTTGTTCACCT (sugars k3 d10 k3, PS), the target mRNA inhibition was 21%. Work on AAACGAATTCAGGGTG (sugars k3 d10 k3, PS) yielded a target mRNA inhibition of 23%. In the case of AAACGGGTCATCAAAC (sugars k3 d10 k3, PS), the target mRNA inhibition is reported as 19%. In the case of AAACTAAATCATTGGG (sugars k3 d10 k3, PS), the target mRNA inhibition is reported as 43%. Work on AAACTTGCCATCTACT (sugars k3 d10 k3, PS) yielded a target mRNA inhibition of -4%. With AAAGACCTCGACACCA (sugars k3 d10 k3, PS) the target mRNA inhibition was 15%. Sequence AAAGATTTGAGCTGCA (sugars k3 d10 k3, PS) has a target mRNA inhibition of -4%. For AAAGCGAGTTCAAGTG (sugars k3 d10 k3, PS), the target mRNA inhibition was -12%. Sequence AAATAAGCACTTATCC (sugars k3 d10 k3, PS) has a target mRNA inhibition of 18%. Work on AAATCGCCATGGAAAG (sugars k3 d10 k3, PS) yielded a target mRNA inhibition of 1%. For AAATGGTAGATTCCGT (sugars k3 d10 k3, PS), the target mRNA inhibition was 60% and 62% and 50%. AACAATCACTACTCCA (sugars k3 d10 k3, PS) was tested, and the target mRNA inhibition was 26%. In the case of AACAGCACAGCGGTAC (sugars k3 d10 k3, PS), the target mRNA inhibition is reported as 2%. AACATAGTTCAACCCA (sugars k3 d10 k3, PS) showed a target mRNA inhibition of 12%. Sequence AACATTGGCACACAGC (sugars k3 d10 k3, PS) has a target mRNA inhibition of 54%. Sequence AACCAGGAGTGCCAAC (sugars k3 d10 k3, PS) has a target mRNA inhibition of -23%. In the case of AACCCCCAGTTCAATA (sugars k3 d10 k3, PS), the target mRNA inhibition is reported as 20%. AACCTGGGCTCCCGGA (sugars k3 d10 k3, PS) showed a target mRNA inhibition of 30%. In the case of AACTCCCCCATTATAT (sugars k3 d10 k3, PS), the target mRNA inhibition is reported as -1%. Work on AACTCCCCCCCGCCTC (sugars k3 d10 k3, PS) yielded a target mRNA inhibition of 6%. Work on AACTCGCATCACCGGA (sugars k3 d10 k3, PS) yielded a target mRNA inhibition of 21%. In the case of AACTGCTTGCAGTCCT (sugars k3 d10 k3, PS), the target mRNA inhibition is reported as 5%. Sequence AACTGGGAATACTCTT (sugars k3 d10 k3, PS) has a target mRNA inhibition of 22%. For AACTTATCTGCGGTTT (sugars k3 d10 k3, PS), the target mRNA inhibition was 6%. Work on AACTTCAACATTTGGC (sugars k3 d10 k3, PS) yielded a target mRNA inhibition of 56%. With AAGAGATACCTGTCTG (sugars k3 d10 k3, PS) the target mRNA inhibition was 22%. With AAGAGCCAAGCACTCA (sugars k3 d10 k3, PS) the target mRNA inhibition was 12%. AAGATAGCAGCACAAC (sugars k3 d10 k3, PS) was tested, and the target mRNA inhibition was 12%. AAGATATTGTGCTGTT (sugars k3 d10 k3, PS) was tested, and the target mRNA inhibition was 13%. With AAGCACTCATATGCAA (sugars k3 d10 k3, PS) the target mRNA inhibition was -2%. Work on AAGCCCTCTCAGCCAC (sugars k3 d10 k3, PS) yielded a target mRNA inhibition of 38%. AAGGATGTATATAGTT (sugars k3 d10 k3, PS) showed a target mRNA inhibition of 21%. In the case of AAGGCTCGATGGAAAA (sugars k3 d10 k3, PS), the target mRNA inhibition is reported as 7%. AAGGCTTCAGTCCCCT (sugars k3 d10 k3, PS) showed a target mRNA inhibition of 14%. Work on AAGTAAGCCCCACCCC (sugars k3 d10 k3, PS) yielded a target mRNA inhibition of 37%. Sequence AAGTAGTTCTTCGGTT (sugars k3 d10 k3, PS) has a target mRNA inhibition of 10%. In the case of AAGTCAAGCTCCTGAC (sugars k3 d10 k3, PS), the target mRNA inhibition is reported as 4%. For AAGTTGGTAATTACTC (sugars k3 d10 k3, PS), the target mRNA inhibition was 22%. AAGTTTTCAGCAGTAG (sugars k3 d10 k3, PS) was tested, and the target mRNA inhibition was 8%. Sequence AATACTCTTCCAAGGA (sugars k3 d10 k3, PS) has a target mRNA inhibition of 15%. AATAGCAGCGGGATCA (sugars k3 d10 k3, PS) gave a target mRNA inhibition of 34%. In the case of AATATTTGCCCCTCCC (sugars k3 d10 k3, PS), the target mRNA inhibition is reported as 15%. AATCGGAGCAGCACGG (sugars k3 d10 k3, PS) gave a target mRNA inhibition of 26%. Sequence AATGCATTCTAATAGC (sugars k3 d10 k3, PS) has a target mRNA inhibition of 17%. AATGGCGGACTTTCTC (sugars k3 d10 k3, PS) was tested, and the target mRNA inhibition was 0%. AATTAAATTGATGGGC (sugars k3 d10 k3, PS) showed a target mRNA inhibition of 17%. AATTCACCAAGGAGCT (sugars k3 d10 k3, PS) showed a target mRNA inhibition of 35%. For AATTGTAGTTAATGTC (sugars k3 d10 k3, PS), the target mRNA inhibition was 36%. Work on AATTTATAGACCCCTG (sugars k3 d10 k3, PS) yielded a target mRNA inhibition of 4%. For AATTTCCTTAGTTGGC (sugars k3 d10 k3, PS), the target mRNA inhibition was 68% and 93%. AATTTTGAGTATGCTG (sugars k3 d10 k3, PS) was tested, and the target mRNA inhibition was 54% and 71%. ACAACATATTGCCGAC (sugars k3 d10 k3, PS) was tested, and the target mRNA inhibition was 10%. ACAAGATTCATGAGTA (sugars k3 d10 k3, PS) showed a target mRNA inhibition of 27%. Sequence ACAAGGATCCAAGCTA (sugars k3 d10 k3, PS) has a target mRNA inhibition of -7%. For ACAAGTCCTACAATTT (sugars k3 d10 k3, PS), the target mRNA inhibition was 31%. For ACACACTACCATATCC (sugars k3 d10 k3, PS), the target mRNA inhibition was -3%. ACACTGGTTCCTGGAA (sugars k3 d10 k3, PS) showed a target mRNA inhibition of 48%. For ACAGAGCTGCTCCCCG (sugars k3 d10 k3, PS), the target mRNA inhibition was 18%. In the case of ACAGCGGTACACTCCT (sugars k3 d10 k3, PS), the target mRNA inhibition is reported as 42%. ACAGGAACAAGTCCTA (sugars k3 d10 k3, PS) showed a target mRNA inhibition of 10%. ACATAGTTCAACCCAC (sugars k3 d10 k3, PS) was tested, and the target mRNA inhibition was 18%. Work on ACATGCAATACTGCAG (sugars k3 d10 k3, PS) yielded a target mRNA inhibition of 3%. For ACATTCAAGCTGAACT (sugars k3 d10 k3, PS), the target mRNA inhibition was -5%. Sequence ACATTTGGCCTACTCA (sugars k3 d10 k3, PS) has a target mRNA inhibition of 46%. ACCAACCCCCAGTTCA (sugars k3 d10 k3, PS) was tested, and the target mRNA inhibition was 28%. Sequence ACCCAAAAGCCCTCTC (sugars k3 d10 k3, PS) has a target mRNA inhibition of 13%. With ACCCACAAACTTGCCA (sugars k3 d10 k3, PS) the target mRNA inhibition was -2%. Sequence ACCCAGAAGTGTTTAC (sugars k3 d10 k3, PS) has a target mRNA inhibition of 16%. With ACCCAGTTTGTCAATA (sugars k3 d10 k3, PS) the target mRNA inhibition was 10%. Sequence ACCCCCACGCCAACAC (sugars k3 d10 k3, PS) has a target mRNA inhibition of 23%. Sequence ACCCTCTAAGAGACAT (sugars k3 d10 k3, PS) has a target mRNA inhibition of 35%. ACCGCACAGCTCGGGC (sugars k3 d10 k3, PS) showed a target mRNA inhibition of 5%. With ACCTCCGTCATGTTTT (sugars k3 d10 k3, PS) the target mRNA inhibition was 43%. Sequence ACCTGGGCTCCCGGAG (sugars k3 d10 k3, PS) has a target mRNA inhibition of 19%. Sequence ACCTGGGTCAGCTGTC (sugars k3 d10 k3, PS) has a target mRNA inhibition of 14%. ACCTTCCGCCGCCTCT (sugars k3 d10 k3, PS) was tested, and the target mRNA inhibition was 33%. For ACCTTGAAACCGATTA (sugars k3 d10 k3, PS), the target mRNA inhibition was 45%. With ACCTTTTACTCTGATC (sugars k3 d10 k3, PS) the target mRNA inhibition was 34%. ACGGATTTTTACCAAC (sugars k3 d10 k3, PS) showed a target mRNA inhibition of 34%. ACGGGTCATCAAACAC (sugars k3 d10 k3, PS) gave a target mRNA inhibition of 14%. For ACTAGTGGTTCCCAAT (sugars k3 d10 k3, PS), the target mRNA inhibition was 33%. In the case of ACTATAGCATCTGTGG (sugars k3 d10 k3, PS), the target mRNA inhibition is reported as 9%. ACTCCCCCCCGCCTCA (sugars k3 d10 k3, PS) showed a target mRNA inhibition of 26%. ACTGAAAACTCCCCCC (sugars k3 d10 k3, PS) showed a target mRNA inhibition of -3%. With ACTGATCACTTTAGAG (sugars k3 d10 k3, PS) the target mRNA inhibition was 36%. For ACTGATTTTAAGGTTG (sugars k3 d10 k3, PS), the target mRNA inhibition was 26%. ACTTAAATTACTAGCG (sugars k3 d10 k3, PS) gave a target mRNA inhibition of -10%. ACTTATCAATTCACCA (sugars k3 d10 k3, PS) showed a target mRNA inhibition of 28%. ACTTATCTGCGGTTTC (sugars k3 d10 k3, PS) was tested, and the target mRNA inhibition was 71% and 53%. ACTTCCCCTTCTAGCT (sugars k3 d10 k3, PS) was tested, and the target mRNA inhibition was 36%. ACTTCCGTTACGAAAG (sugars k3 d10 k3, PS) showed a target mRNA inhibition of 1%. ACTTTAAGCCTTCGGT (sugars k3 d10 k3, PS) gave a target mRNA inhibition of 13%. ACTTTCCATTACGCAA (sugars k3 d10 k3, PS) showed a target mRNA inhibition of 9%. AGAACAACTCGCATCA (sugars k3 d10 k3, PS) was tested, and the target mRNA inhibition was 12%. Sequence AGACAAGATTCATGAG (sugars k3 d10 k3, PS) has a target mRNA inhibition of 50%. Sequence AGACCAACTAAGCGAA (sugars k3 d10 k3, PS) has a target mRNA inhibition of 38%. AGACCCCTGACTTTCT (sugars k3 d10 k3, PS) gave a target mRNA inhibition of 22%. Sequence AGACCTCGACACCATC (sugars k3 d10 k3, PS) has a target mRNA inhibition of 46%. With AGACTGTTGCTTGTTT (sugars k3 d10 k3, PS) the target mRNA inhibition was 1%. With AGAGAACCACACACTA (sugars k3 d10 k3, PS) the target mRNA inhibition was 28%.

These sequences were tested against IRF4. Conditions: ASO, MM.1R, 1 µM.
Sequence TTTACACCGTTGCTCA (sugars k3 d10 k3, PS) has a target mRNA inhibition of 3%. Sequence TTTTGGCTCCCTCAGG (sugars k3 d10 k3, PS) has a target mRNA inhibition of -3%.

Same assay, conditions: ASO, SK-MEL-28, 4 µM
Work on TTGTGGACACTTTTAG (sugars k3 d10 k3, PS) yielded a target mRNA inhibition of 49%. For TTTATATATGACGACT (sugars k3 d10 k3, PS), the target mRNA inhibition was 39%. Work on TTTATGGACCACGCAG (sugars k3 d10 k3, PS) yielded a target mRNA inhibition of 38%. TTTGAAGCAACACGGG (sugars k3 d10 k3, PS) was tested, and the target mRNA inhibition was 47%. Work on TTTTAGTGTTACTTGC (sugars k3 d10 k3, PS) yielded a target mRNA inhibition of 32%. With TTTTATATATGACGAC (sugars k3 d10 k3, PS) the target mRNA inhibition was 34%. TTTTATGGACCACGCA (sugars k3 d10 k3, PS) showed a target mRNA inhibition of 31%.
